Test results: ChEMBL document CHEMBL5291721, “A preclinical secondary pharmacology resource illuminates target-adverse drug reaction associations of marketed drugs” (Nat Commun, 2023)

How the values were obtained:
[1] = molecular target: T1, Corticotropin-releasing factor receptor 1 (Homo sapiens, UniProt P34998)
T1 sequence (P34998 whole entry): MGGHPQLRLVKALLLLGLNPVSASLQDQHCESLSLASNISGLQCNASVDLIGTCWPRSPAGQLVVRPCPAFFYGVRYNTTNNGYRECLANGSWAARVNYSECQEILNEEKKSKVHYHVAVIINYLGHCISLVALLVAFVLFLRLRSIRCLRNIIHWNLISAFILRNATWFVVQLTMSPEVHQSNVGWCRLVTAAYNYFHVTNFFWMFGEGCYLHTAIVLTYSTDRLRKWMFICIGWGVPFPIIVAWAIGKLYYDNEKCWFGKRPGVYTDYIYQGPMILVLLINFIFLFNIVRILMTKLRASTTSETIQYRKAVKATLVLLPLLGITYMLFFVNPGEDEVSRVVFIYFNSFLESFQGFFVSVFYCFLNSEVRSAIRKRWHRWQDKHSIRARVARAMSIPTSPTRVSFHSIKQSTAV

[2] = molecular target: T2, Peroxisome proliferator-activated receptor gamma (Homo sapiens, UniProt P37231); type: functional
T2 sequence (P37231 whole entry): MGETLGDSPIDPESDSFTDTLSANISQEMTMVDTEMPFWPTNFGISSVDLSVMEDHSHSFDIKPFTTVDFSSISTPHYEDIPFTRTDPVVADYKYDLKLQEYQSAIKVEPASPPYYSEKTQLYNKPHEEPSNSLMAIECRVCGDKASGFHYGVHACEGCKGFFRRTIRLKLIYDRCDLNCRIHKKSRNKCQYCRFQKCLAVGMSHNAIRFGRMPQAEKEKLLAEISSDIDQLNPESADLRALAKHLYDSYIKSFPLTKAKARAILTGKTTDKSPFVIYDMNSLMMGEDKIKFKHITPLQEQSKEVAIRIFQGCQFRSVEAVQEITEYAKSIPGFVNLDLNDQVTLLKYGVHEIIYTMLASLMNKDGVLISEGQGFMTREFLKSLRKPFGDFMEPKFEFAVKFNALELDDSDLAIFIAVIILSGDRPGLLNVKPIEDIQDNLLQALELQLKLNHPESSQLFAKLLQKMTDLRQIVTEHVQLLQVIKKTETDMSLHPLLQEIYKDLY

Histamine H2 receptor = Histamine H2 receptor (Homo sapiens, UniProt P25021)
Chain of Histamine H2 receptor (P25021 whole entry): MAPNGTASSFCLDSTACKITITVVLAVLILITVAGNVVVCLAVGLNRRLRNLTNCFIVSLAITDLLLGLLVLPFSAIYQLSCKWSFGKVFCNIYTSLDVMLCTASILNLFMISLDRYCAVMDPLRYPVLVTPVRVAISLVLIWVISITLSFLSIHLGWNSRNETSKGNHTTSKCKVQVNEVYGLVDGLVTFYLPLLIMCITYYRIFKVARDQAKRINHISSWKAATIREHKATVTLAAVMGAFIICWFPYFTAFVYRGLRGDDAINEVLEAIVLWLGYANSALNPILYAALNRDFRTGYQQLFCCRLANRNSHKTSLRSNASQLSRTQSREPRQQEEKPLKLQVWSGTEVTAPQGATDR

[3] = molecular target: T3, Neuropeptide Y receptor type 2 (Homo sapiens, UniProt P49146)
T3 sequence (P49146 whole entry): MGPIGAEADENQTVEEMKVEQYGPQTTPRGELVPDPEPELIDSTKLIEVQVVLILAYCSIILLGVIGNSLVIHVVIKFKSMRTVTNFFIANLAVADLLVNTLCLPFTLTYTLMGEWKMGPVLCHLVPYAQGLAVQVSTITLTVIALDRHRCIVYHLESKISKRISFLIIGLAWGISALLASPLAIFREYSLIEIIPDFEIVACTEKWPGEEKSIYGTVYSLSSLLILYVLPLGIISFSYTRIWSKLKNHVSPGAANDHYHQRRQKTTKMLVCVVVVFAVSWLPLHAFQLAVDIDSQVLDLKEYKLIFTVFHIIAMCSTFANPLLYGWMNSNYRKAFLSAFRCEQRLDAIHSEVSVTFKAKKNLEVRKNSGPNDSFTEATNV

D(1A) dopamine receptor = D(1A) dopamine receptor (Homo sapiens, UniProt P21728)
Chain of D(1A) dopamine receptor (P21728 whole entry): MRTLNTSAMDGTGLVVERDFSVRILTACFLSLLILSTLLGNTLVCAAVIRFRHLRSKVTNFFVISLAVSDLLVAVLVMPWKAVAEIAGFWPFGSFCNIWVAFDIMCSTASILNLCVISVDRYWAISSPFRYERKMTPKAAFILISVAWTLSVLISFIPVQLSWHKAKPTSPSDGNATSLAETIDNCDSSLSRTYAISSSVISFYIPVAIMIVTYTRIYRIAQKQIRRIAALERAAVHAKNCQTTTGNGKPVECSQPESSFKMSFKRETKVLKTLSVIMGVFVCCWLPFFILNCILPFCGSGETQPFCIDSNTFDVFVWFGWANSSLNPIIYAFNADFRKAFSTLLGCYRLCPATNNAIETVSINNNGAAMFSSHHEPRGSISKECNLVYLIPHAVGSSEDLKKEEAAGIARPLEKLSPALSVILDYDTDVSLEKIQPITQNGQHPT

D(4) dopamine receptor = molecular target: T4, D(4) dopamine receptor (Homo sapiens, UniProt P21917)
T4 sequence (P21917 whole entry): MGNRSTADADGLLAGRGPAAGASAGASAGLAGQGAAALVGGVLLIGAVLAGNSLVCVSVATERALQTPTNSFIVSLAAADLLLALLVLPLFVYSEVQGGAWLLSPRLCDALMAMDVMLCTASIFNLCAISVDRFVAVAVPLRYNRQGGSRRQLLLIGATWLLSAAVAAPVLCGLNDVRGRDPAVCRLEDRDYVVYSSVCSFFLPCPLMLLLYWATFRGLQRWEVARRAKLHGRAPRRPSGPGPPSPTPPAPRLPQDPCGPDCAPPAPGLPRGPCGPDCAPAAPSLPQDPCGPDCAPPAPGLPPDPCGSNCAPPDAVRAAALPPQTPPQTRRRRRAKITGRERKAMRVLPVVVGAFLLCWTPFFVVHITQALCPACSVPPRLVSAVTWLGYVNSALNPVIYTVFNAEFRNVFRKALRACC

[4] = molecular target: T2, Peroxisome proliferator-activated receptor gamma; type: functional; remark: listed apart in the source
[5] = molecular target: Neurotensin receptor type 1 (Homo sapiens, UniProt P30989)
Chain of Neurotensin receptor type 1 (P30989 whole entry): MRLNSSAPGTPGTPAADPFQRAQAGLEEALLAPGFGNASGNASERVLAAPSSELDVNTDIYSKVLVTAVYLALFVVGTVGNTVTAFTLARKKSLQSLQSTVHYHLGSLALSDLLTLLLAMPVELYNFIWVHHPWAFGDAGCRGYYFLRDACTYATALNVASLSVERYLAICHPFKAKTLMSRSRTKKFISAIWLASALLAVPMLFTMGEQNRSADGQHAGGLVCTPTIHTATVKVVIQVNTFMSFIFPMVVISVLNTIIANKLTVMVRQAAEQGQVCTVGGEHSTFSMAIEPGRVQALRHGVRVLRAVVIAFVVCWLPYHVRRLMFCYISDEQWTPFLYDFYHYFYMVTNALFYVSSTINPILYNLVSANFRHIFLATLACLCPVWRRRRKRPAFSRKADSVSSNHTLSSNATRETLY

[6] = molecular target: Gamma-aminobutyric acid receptor subunit alpha-1/alpha-2/beta-2/gamma-2 (Homo sapiens, UniProt P14867+P18507+P47869+P47870); type: functional, cell-based
Chain of Gamma-aminobutyric acid receptor subunit alpha-1/alpha-2/beta-2/gamma-2 (P14867 whole entry): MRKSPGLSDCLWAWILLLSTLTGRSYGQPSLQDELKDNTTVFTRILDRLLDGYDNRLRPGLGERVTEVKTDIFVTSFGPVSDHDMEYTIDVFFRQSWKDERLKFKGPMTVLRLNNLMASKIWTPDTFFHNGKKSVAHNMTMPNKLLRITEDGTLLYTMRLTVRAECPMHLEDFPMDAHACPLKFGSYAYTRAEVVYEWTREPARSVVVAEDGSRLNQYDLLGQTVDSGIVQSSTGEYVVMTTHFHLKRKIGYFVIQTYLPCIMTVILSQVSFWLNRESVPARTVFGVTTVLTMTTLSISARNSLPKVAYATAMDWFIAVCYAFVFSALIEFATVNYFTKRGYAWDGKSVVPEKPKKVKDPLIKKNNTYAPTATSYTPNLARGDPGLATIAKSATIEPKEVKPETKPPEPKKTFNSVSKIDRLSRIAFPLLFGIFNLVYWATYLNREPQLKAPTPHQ
Chain of Gamma-aminobutyric acid receptor subunit alpha-1/alpha-2/beta-2/gamma-2 (P47870 whole entry): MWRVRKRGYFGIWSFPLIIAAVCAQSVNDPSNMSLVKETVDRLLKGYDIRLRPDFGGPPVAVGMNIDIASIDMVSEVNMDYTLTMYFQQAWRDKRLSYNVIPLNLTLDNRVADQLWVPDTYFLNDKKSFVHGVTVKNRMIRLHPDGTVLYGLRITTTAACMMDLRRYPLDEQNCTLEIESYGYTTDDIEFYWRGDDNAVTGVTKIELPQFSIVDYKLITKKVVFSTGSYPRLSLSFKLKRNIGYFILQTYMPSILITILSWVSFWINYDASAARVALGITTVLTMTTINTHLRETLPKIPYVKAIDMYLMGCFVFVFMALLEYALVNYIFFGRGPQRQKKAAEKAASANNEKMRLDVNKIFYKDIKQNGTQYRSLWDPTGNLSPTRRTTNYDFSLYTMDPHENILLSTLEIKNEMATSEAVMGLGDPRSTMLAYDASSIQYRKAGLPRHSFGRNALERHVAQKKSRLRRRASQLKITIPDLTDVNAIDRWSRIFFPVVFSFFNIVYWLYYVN
Chain of Gamma-aminobutyric acid receptor subunit alpha-1/alpha-2/beta-2/gamma-2 (P18507 whole entry): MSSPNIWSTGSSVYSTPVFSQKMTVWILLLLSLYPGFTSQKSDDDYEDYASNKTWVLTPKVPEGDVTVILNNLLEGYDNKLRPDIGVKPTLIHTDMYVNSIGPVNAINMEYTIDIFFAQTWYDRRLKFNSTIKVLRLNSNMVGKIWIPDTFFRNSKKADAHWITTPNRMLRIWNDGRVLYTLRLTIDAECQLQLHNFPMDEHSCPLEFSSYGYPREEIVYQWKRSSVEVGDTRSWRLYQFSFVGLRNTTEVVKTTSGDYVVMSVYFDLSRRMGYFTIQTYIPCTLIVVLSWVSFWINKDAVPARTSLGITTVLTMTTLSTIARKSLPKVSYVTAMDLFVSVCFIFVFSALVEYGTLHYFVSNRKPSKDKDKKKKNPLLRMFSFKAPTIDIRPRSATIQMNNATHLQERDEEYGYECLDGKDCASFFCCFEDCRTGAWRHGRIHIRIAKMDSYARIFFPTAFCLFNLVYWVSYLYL
Chain of Gamma-aminobutyric acid receptor subunit alpha-1/alpha-2/beta-2/gamma-2 (P47869 whole entry): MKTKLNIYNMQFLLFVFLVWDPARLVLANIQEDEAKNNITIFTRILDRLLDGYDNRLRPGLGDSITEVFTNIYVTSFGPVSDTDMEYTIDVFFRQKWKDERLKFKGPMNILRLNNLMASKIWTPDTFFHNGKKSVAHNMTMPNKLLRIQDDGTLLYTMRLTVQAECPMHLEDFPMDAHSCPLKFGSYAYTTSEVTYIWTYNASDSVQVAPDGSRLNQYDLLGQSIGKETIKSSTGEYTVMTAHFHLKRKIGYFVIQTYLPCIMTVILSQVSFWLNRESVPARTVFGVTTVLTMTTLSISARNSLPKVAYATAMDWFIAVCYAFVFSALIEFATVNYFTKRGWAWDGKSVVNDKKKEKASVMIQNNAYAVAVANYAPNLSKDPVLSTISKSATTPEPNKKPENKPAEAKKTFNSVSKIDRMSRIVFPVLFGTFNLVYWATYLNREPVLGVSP

[7] = molecular target: T5, Alpha-2B adrenergic receptor (Homo sapiens, UniProt P18089)
T5 sequence (P18089 whole entry): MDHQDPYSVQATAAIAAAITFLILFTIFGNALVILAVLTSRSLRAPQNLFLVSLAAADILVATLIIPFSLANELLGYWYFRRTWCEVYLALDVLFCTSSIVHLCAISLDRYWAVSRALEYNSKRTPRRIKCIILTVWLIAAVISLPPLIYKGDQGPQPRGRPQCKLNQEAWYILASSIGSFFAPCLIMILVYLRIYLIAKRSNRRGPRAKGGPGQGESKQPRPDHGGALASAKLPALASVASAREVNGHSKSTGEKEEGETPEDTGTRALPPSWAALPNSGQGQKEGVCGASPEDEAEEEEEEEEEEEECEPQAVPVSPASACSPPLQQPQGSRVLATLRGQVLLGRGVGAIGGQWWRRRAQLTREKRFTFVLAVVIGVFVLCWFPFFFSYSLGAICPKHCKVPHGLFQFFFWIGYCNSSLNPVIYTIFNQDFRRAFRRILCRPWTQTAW
Further: assay procedure not described here.

SMILES | AC50 [2] | AC50 [3] | AC50 (D(1A) dopamine receptor) | AC50 [4] | AC50 [6] | AC50 [7] | AC50 [1] | AC50 (Histamine H2 receptor) | AC50 (D(4) dopamine receptor) | AC50 [5]
N[C@@H](CC(=O)N1CCn2c(nnc2C(F)(F)F)C1)Cc1cc(F)c(F)cc1F [SITAGLIPTIN] | > 30 µM | > 10 µM | > 10 µM | > 30 µM | > 30 µM | > 30 µM |  | > 10 µM | > 10 µM | > 10 µM
C=CC[C@@H]1/C=C(\C)C[C@H](C)C[C@H](OC)[C@H]2O[C@@](O)(C(=O)C(=O)N3CCCC[C@H]3C(=O)O[C@H](/C(C)=C/[C@@H]3CC[C@@H](O)[C@H](OC)C3)[C@H](C)[C@@H](O)CC1=O)[C@H](C)C[C@@H]2OC [TACROLIMUS ANHYDROUS] | > 30 µM | > 30 µM | > 10 µM | > 30 µM | > 30 µM |  | > 30 µM | > 10 µM | > 10 µM | > 30 µM
Cc1onc(-c2ccccc2)c1-c1ccc(S(N)(=O)=O)cc1 [VALDECOXIB] | > 30 µM | > 30 µM | > 10 µM | > 30 µM |  |  | > 30 µM | > 10 µM | > 10 µM | > 30 µM

Continued, in another order:

AC50 [2] | AC50 [3] | AC50 (D(1A) dopamine receptor) | AC50 [4] | AC50 [6] | AC50 [7] | SMILES | AC50 [1] | AC50 (Histamine H2 receptor) | AC50 (D(4) dopamine receptor) | AC50 [5]
> 30 µM | > 30 µM | 2.28 µM | 28 µM |  |  | COc1ccccc1OCCNCC(O)COc1cccc2[nH]c3ccccc3c12 (stereo unspecified) [CARVEDILOL] | > 30 µM | 1.56 µM | 0.0172 µM | > 30 µM
> 30 µM | > 30 µM | > 10 µM | > 30 µM | > 30 µM | > 30 µM | C[C@@H](Oc1cc(-c2cnn(C3CCNCC3)c2)cnc1N)c1c(Cl)ccc(F)c1Cl [CRIZOTINIB] | > 30 µM |  |  | 
